This is an account of results in patent US20090130070A1, “METHOD OF TREATMENT” (The University of Queensland, priority 2004, published 2009).

The subject of this test is Human epidermal keratinocytes (HaCaT cells). Description: "scrape" in vitro wound healing model (wound closure of a scraped confluent monolayer). The format is cell-based. The settings on record: for wound width, day 1: day 1 (24 hours); for wound width, day 2: day 2 (48 hours). Here is the method: The “scrape” in vitro wound healing model has been previously presented in the literature (Li, F. et al., 2000, Exp Cell Res., 258(2): 245-253; Firth J. D. et al., 2004, J. Invest. Dermatol., 122(1): 222-231). In this model a scrape across a confluent monolayer of cells is used to simulate a wound and the effect of agents added to serum free media is tested on the rate of closure of the gap.
Human epidermal keratinocytes (HaCaT cells) were plated at a density of 1×10^5 cells/well into Nunc 6 well plates in Dulbecco's Modified Eagle Medium (DMEM) containing 10% fetal bovine serum (FBS) benzyl penicillin (100 IU/ml), streptomycin […] confluence (2 days) monolayers were “wounded” with a 1 ml pipette tip (0.5 mm width) by scraping the tip across the centre of the well. The wells were then washed 5 times with DMEM. One ml of either DMEM with 10% FBS, DMEM or DMEM with: 3, 6, 12 or 24 mgs/ml bovine fetuin A (Sigma), 6.25, 12.5, 25 or 50 μg/ml peptide TGF peptide antagonist (Corresponding to residues 41-65 of TGFβ-1-3:—Huang S. S. et al., 1997, Journal of Biological Chemistry, 272(43):27155-27159) and 2.1, 4.2, 8.4 and 16.8 mg/ml bovine thyroglobulin was added to each well (2 replicates per plate, 4 plates). These concentrations were calculated to have equivalent antagonistic effect on the binding of TGFβ-1 to its receptor for each of the compounds. All DMEM solutions used contained benzyl penicillin (100 IU/ml), streptomycin ([…]) and fungizone (250 mg/ml). A mark was placed on the base of each well at right angles to the “wound” and the wound was photographed at the intersection of the mark and wound with a Nikon EOS 300 digital camera fitted to a JenaMed (Ziess Jena) inverted microscope (50×). Images were taken at the same positions 24 and 48 hours after addition of the treatment media. Digital images were analysed with Image Pro (Media Cybernetics) image analysis software and an image of a Nikon stage micrometer was used for calibration of length measurements. Results were summarized as the wound width after 24 and 48 hours.

The mark [1] stands for this setting: 6.25 μg/ml TGF peptide antagonist in DMEM.
Setting [2] is: 12.5 μg/ml TGF peptide antagonist in DMEM.
Where [3] appears, read: 25 μg/ml TGF peptide antagonist in DMEM.
[4] abbreviates: 50 μg/ml TGF peptide antagonist in DMEM.
The mark [5] stands for this setting: 2.1 mg/ml bovine thyroglobulin in DMEM.
The mark [6] stands for this setting: 4.2 mg/ml bovine thyroglobulin in DMEM.
Setting [7] is: 8.4 mg/ml bovine thyroglobulin in DMEM.
[8] abbreviates: 16.8 mg/ml bovine thyroglobulin in DMEM.

For the substance “TGFB-R inhibitor: peptide TGF peptide antagonist corresponding to residues 41-65 of TGFβ-1-3 (Huang S. S. et al., 1997) (ANFCLGPCPYIWSLDTQYSKVLALY; Transforming growth factor beta-1; UniProt P01137 319-343, looked up, fragment)”, the “wound width, day 0” value turned out to be 0.6779 under setting [1], 0.6751 under setting [2], 0.6643 under setting [3] and 0.6371 under setting [4]. Besides, the “wound width, day 1” value is given as 0.5473 under setting [1], 0.5515 under setting [2], 0.5341 under setting [3] and 0.554 under setting [4]. For the same substance, the “wound width, day 2” value is given as 0.4866 under setting [1], 0.4839 under setting [2], 0.4688 under setting [3] and 0.498 under setting [4].
Consider “Thyroglobulin: bovine thyroglobulin, comparator that binds members of the TGF-β superfamily”, for which the “wound width, day 0” value is, setting by setting: under setting [5], 0.6587; under setting [6], 0.6428; under setting [7], 0.6669; under setting [8], 0.6152. The “wound width, day 1” value was 0.413 under setting [5], 0.5772 under setting [6], 0.5742 under setting [7] and 0.5981 under setting [8]. The “wound width, day 2” value amounted to 0.4941 under setting [5], 0.5393 under setting [6], 0.5909 under setting [7] and 0.6132 under setting [8].
